Data on 35 compounds can be found in patent US11261211B2, “19-NOR neuroactive steroids and methods of use thereof” (Sage Therapeutics, Inc., priority 2013, dated 2022).

Assay [1] addresses α1β2γ2 GABAA receptor (Homo sapiens (Human), UniProt P14867+P47870). Nature of the assay: Patch clamp electrophysiology of recombinant α1β2γ2 GABAA receptors in LTK cells. It counts as cell-based. The note with it: for activity at 10 µM / Emax: LTK; for activity at 10 µM / α1β2γ2 GABA Qpatch in Ltk (Efficacy at 10 μm): 10 μM compound, Qpatch, Ltk cells, GABA EC20 2 μM; for activity at 10 µM: read-out: α1β2γ2 GABA Qpatch in Ltk (Efficacy at 10 μm); for Emax / pEC50: potentiation of GABA EC20 (2 μM) current; for Emax: read-out: GABAa alpha1 (α1β2γ2) Emax (%); for pEC50: read-out: GABAa alpha1 (α1β2γ2)EC50. The protocol: (§1) Cellular electrophysiology is used to measure the pharmacological properties of our GABAA receptor modulators in heterologous cell systems. Each compound is tested for its ability to affect GABA mediated currents at a submaximal agonist dose (GABA EC20=2 μM). LTK cells are stably transfected with the α1β2γ2 subunits of the GABA receptor and CHO cells are transiently transfected with the α4β3δ subunits via the Lipofecatamine method. Cells were passaged at a confluence of about 50-80% and then seeded onto 35 mm sterile culture dishes containing 2 ml culture complete medium without antibiotics or antimycotics. Confluent clusters of cells are electrically coupled (Pritchett et al., 1988). Because responses in distant cells are not adequately voltage clamped and because of uncertainties about the extent of coupling (Verdoorn et al., 1990), cells were cultivated at a density that enables the recording of single cells (without visible connections to other cells).
(§2) Whole cell currents were measured with HEKA EPC-10 amplifiers using PatchMaster software or by using the high throughput QPatch platform (Sophion). Bath solution for all experiments contained (in mM): NaCl 137 mM, KCl 4 mM, CaCl2 1.8 mM, MgCl2 1 mM, HEPES 10 mM, D-Glucose 10 mM, pH (NaOH) 7.4. In some cases 0.005% cremophor was also added. Intracellular (pipette) solution contained: KCl 130 mM, MgCl2 1 mM, Mg-ATP 5 mM, HEPES 10 mM, EGTA 5 mM, pH 7.2. During experiments, cells and solutions were maintained at room temperature (19° C.-30° C.). For manual patch clamp recordings, cell culture dishes were placed on the dish holder of the microscope and continuously perfused (1 ml/min) with bath solution. After formation of a Gigaohm seal between the patch electrodes and the cell (pipette resistance range: 2.5 MΩ-6.0 MΩ; seal resistance range: >1 GΩ) the cell membrane across the pipette tip was ruptured to assure electrical access to the cell interior (whole-cell patch-configuration). For experiments using the QPatch system, cells were transferred as suspension to the QPatch system in the bath solution and automated whole cell recordings were performed.
(§3) Cells were voltage clamped at a holding potential of −80 mV. For the analysis of test articles, GABA receptors were stimulated by 2 μM GABA after sequential pre-incubation of increasing concentrations of the test article. Pre-incubation duration was 30 s and the duration of the GABA stimulus was 2 s. Test articles were dissolved in DMSO to form stock solutions (10 mM). Test articles were diluted to 0.01, 0.1, 1, and 10 μM in bath solution. All concentrations of test articles were tested on each cell. The relative percentage potentiation was defined as the peak amplitude in response to GABA EC20 in the presence of the test article divided by the peak amplitude in response to GABA EC20 alone, multiplied by 100.

Assay [2] deals with α4β3δ GABAA receptor (Homo sapiens (Human), UniProt P28472+P48169). Nature of the assay: Patch clamp electrophysiology of recombinant α4β3δ GABAA receptors in CHO cells. The format is cell-based. To be noted: 10 μM compound, GABA EC20 2 μM; for activity at 10 µM: manual patch, read-out: α4β3δ GABA Manual Patch in CHO (Efficacy at 10 μM). The procedure: as §1, §2, §3
On the technique in general: The patch-clamp technique gives a direct electrical read-out from membranes.

pEC50: −log10 of the molar value. A value given as a limit tells only on which side of the number the result lay.

Consider `COC[C@@]1(O)CC[C@H]2[C@@H](CC[C@@H]3[C@@H]2CC[C@]2(C)[C@@H](C(=O)Cn4cc5ccncc5n4)CC[C@@H]32)C1` [SB-45], for which the activity at 10 µM in assay [1] and in assay [2] was 100 to 500% in each case.
On to `COc1ccc2nn(CC(=O)[C@H]3CC[C@H]4[C@@H]5CC[C@@H]6C[C@](C)(O)CC[C@@H]6[C@H]5CC[C@]34C)nc2c1` [SA-49], for which the activity at 10 µM in assay [2] is greater than 500%.
With `C[C@]12CC[C@H]3[C@@H](CC[C@@H]4C[C@@](O)(CF)CC[C@@H]43)[C@@H]1CC[C@@H]2C(=O)Cn1nc2ccccc2n1` [SA-80], the activity at 10 µM in assay [1] and in assay [2] was greater than 500% each time.
As to `C[C@]12CC[C@H]3[C@@H](CC[C@@H]4C[C@@](O)(CF)CC[C@@H]43)[C@@H]1CC[C@@H]2C(=O)Cn1cc2ncccc2n1` [SA-83], the activity at 10 µM in assay [1] and in assay [2] was 100 to 500% each time.
Consider `C[C@@]1(O)CC[C@H]2[C@H](CC[C@@H]3[C@@H]2CC[C@]2(C)[C@@H](C(=O)Cn4cc5ccccc5n4)CC[C@@H]32)C1` [SA-6], for which, in assay [1], the “α1β2γ2 GABA Qpatch in Ltk (Efficacy at 10 μm)” value (from here on “α1β2γ2 GABA Qpatch in Ltk”) is “C (“C” indicates an efficacy value of >500%)”; the Emax (as a rule, the maximal effect, on the per cent scale that the assay sets) was in the range of 500 to 1000%; the pEC50 – broadly, −log10 of the EC50, conventionally taken in molar units – is less than 5.70. In addition, in assay [2], the “α4β3δ GABA Manual Patch in CHO (Efficacy at 10 μM)” value is “B (“B” indicates an efficacy value of >100-500%)”.
As to `C[C@@]1(O)CC[C@H]2[C@@H](CC[C@@H]3[C@@H]2CC[C@]2(C)[C@@H](C(=O)Cn4nc5ccncc5n4)CC[C@@H]32)C1` [SB-8], the activity at 10 µM in assay [1] was greater than 500%; in assay [2], 100 to 500%.
Turning to `C[C@@]1(O)CC[C@H]2[C@H](CC[C@@H]3[C@@H]2CC[C@]2(C)[C@@H](C(=O)Cn4nc5ccc(F)cc5n4)CC[C@@H]32)C1` [SA-63], the activity at 10 µM in assay [2] lay within 100 to 500%.
Consider `C[C@@]1(O)CC[C@H]2[C@H](CC[C@@H]3[C@@H]2CC[C@]2(C)[C@@H](C(=O)Cn4ncc5cc(C#N)ccc54)CC[C@@H]32)C1` [SA-38], for which, in assay [1], the activity at 10 µM was greater than 500%.
In the case of `CC[C@@]1(O)CC[C@H]2[C@H](CC[C@@H]3[C@@H]2CC[C@]2(C)[C@@H](C(=O)Cn4nc5ccncc5n4)CC[C@@H]32)C1` [SA-114], the activity at 10 µM in assay [1] was greater than 500%.
As for `CCOC[C@@]1(O)CC[C@H]2[C@@H](CC[C@@H]3[C@@H]2CC[C@]2(C)[C@@H](C(=O)Cn4nc5ccccc5n4)CC[C@@H]32)C1` [SB-53], in assay [1], the activity at 10 µM is 10 to 100%.
As to `C[C@@]1(O)CC[C@H]2[C@@H](CC[C@@H]3[C@@H]2CC[C@]2(C)[C@@H](C(=O)Cn4ncc5ncccc54)CC[C@@H]32)C1` [SB-5], the “α1β2γ2 GABA Qpatch in Ltk” value in assay [1] is “B (“B” indicates an efficacy value of >100-500%)”.
With `CC[C@@]1(O)CC[C@H]2[C@@H](CC[C@@H]3[C@@H]2CC[C@]2(C)[C@@H](C(=O)Cn4nc5ccc(F)cc5n4)CC[C@@H]32)C1` [SB-39], the activity at 10 µM in assay [1] was in the range of 10 to 100%.
Consider `CCOC[C@@]1(O)CC[C@H]2[C@@H](CC[C@@H]3[C@@H]2CC[C@]2(C)[C@@H](C(=O)Cn4cc5ncccc5n4)CC[C@@H]32)C1` [SB-55], for which, in assay [1], the activity at 10 µM fell in the range of 10 to 100%.
The same measure, in the same setting: the value for `C[C@@]1(O)CC[C@H]2[C@H](CC[C@@H]3[C@@H]2CC[C@]2(C)[C@@H](C(=O)Cn4ncc5nccnc54)CC[C@@H]32)C1` [SA-29] was 100 to 500%; that for `COc1ccc2c(c1)nnn2CC(=O)[C@H]1CC[C@H]2[C@@H]3CC[C@H]4C[C@@](O)(CF)CC[C@@H]4[C@H]3CC[C@]12C` [SG-23] was 10 to 100%; that for `COc1cccc2c1nnn2CC(=O)[C@H]1CC[C@H]2[C@@H]3CC[C@@H]4C[C@](C)(O)CC[C@@H]4[C@H]3CC[C@]12C` [SA-74] was 100 to 500%.
Still for that read-out and setting: with `C[C@@]1(O)CC[C@H]2[C@H](CC[C@@H]3[C@@H]2CC[C@]2(C)[C@@H](C(=O)Cn4nnc5cccnc54)CC[C@@H]32)C1` [SA-15] the figure was greater than 500%.
Regarding `C[C@]12CC[C@H]3[C@@H](CC[C@H]4C[C@@](O)(CF)CC[C@@H]43)[C@@H]1CC[C@@H]2C(=O)Cn1cc2ncccc2n1` [SB-16], the activity at 10 µM in assay [1] was 100 to 500%.
In the case of `COC[C@@]1(O)CC[C@H]2[C@@H](CC[C@@H]3[C@@H]2CC[C@]2(C)[C@@H](C(=O)Cn4nnc5ccccc54)CC[C@@H]32)C1` [SB-49], the activity at 10 µM in assay [1] is 100 to 500%.
Regarding `COC[C@@]1(O)CC[C@H]2[C@@H](CC[C@@H]3[C@@H]2CC[C@]2(C)[C@@H](C(=O)Cn4cc5ncccc5n4)CC[C@@H]32)C1` [SB-47], the activity at 10 µM in assay [1] is greater than 500%.
In the case of `C[C@@]1(O)CC[C@H]2[C@H](CC[C@@H]3[C@@H]2CC[C@]2(C)[C@@H](C(=O)Cn4ncc5c4CCCC5)CC[C@@H]32)C1` [SA-8], in assay [1], the “α1β2γ2 GABA Qpatch in Ltk” value is given as “B (“B” indicates an efficacy value of >100-500%)”, the maximal effect (Emax) was 0 to 500% and the pEC50 was 5.70 to 6.00.
Take `CC[C@@]1(O)CC[C@H]2[C@H](CC[C@@H]3[C@@H]2CC[C@]2(C)[C@@H](C(=O)Cn4nnc5cnccc54)CC[C@@H]32)C1` [SA-112]: in assay [1], the activity at 10 µM was in the range of 100 to 500%.
Consider `COc1ccc2nn(CC(=O)[C@H]3CC[C@H]4[C@@H]5CC[C@H]6C[C@@](O)(CF)CC[C@@H]6[C@H]5CC[C@]34C)nc2c1` [SG-21], for which the activity at 10 µM in assay [1] was 10 to 100%.
Turning to `C[C@]12CC[C@H]3[C@@H](CC[C@@H]4C[C@@](O)(C(F)F)CC[C@@H]43)[C@@H]1CC[C@@H]2C(=O)Cn1nnc2cnccc21` [SA-96], in assay [1], the activity at 10 µM fell in the range of 100 to 500%.
Consider `C[C@@]1(O)CC[C@H]2[C@H](CC[C@@H]3[C@@H]2CC[C@]2(C)[C@@H](C(=O)Cn4nc5ccc(F)cc5n4)CC[C@@H]32)C1` [SA-62], for which the activity at 10 µM in assay [1] lay in the range of 100 to 500%.
With `COC[C@@]1(O)CC[C@H]2[C@@H](CC[C@@H]3[C@@H]2CC[C@]2(C)[C@@H](C(=O)Cn4nnc5cnccc54)CC[C@@H]32)C1` [SB-43], the activity at 10 µM in assay [1] was 100 to 500%.
With `CC[C@@]1(O)CC[C@H]2[C@H](CC[C@@H]3[C@@H]2CC[C@]2(C)[C@@H](C(=O)Cn4ncc5ncccc54)CC[C@@H]32)C1` [SA-111], the activity at 10 µM in assay [1] was greater than 500%.
Consider `C[C@@]1(O)CC[C@H]2[C@H](CC[C@@H]3[C@@H]2CC[C@]2(C)[C@@H](C(=O)Cn4nnc5cccc(F)c54)CC[C@@H]32)C1` [SA-65], for which the activity at 10 µM in assay [1] was greater than 500%.
Still for that read-out and setting: with `CCOC[C@@]1(O)CC[C@H]2[C@@H](CC[C@@H]3[C@@H]2CC[C@]2(C)[C@@H](C(=O)Cn4ncc5ccncc54)CC[C@@H]32)C1` [SB-56] the figure was 10 to 100%; with `C[C@@]1(O)CC[C@H]2[C@H](CC[C@@H]3[C@@H]2CC[C@]2(C)[C@@H](C(=O)Cn4nnc5ncccc54)CC[C@@H]32)C1` [SA-13], greater than 500%.
Take `C[C@]12CC[C@H]3[C@@H](CC[C@@H]4C[C@@](O)(CF)CC[C@@H]43)[C@@H]1CC[C@@H]2C(=O)Cn1nnc2ccccc21` [SA-79]: in assay [1], the activity at 10 µM is greater than 500%.
`C[C@@]1(O)CC[C@H]2[C@H](CC[C@@H]3[C@@H]2CC[C@]2(C)[C@@H](C(=O)Cn4ncc5cc(F)ccc54)CC[C@@H]32)C1` [SA-17]: the activity at 10 µM in assay [1] was 100 to 500%.
`COC[C@@]1(O)CC[C@H]2[C@@H](CC[C@@H]3[C@@H]2CC[C@]2(C)[C@@H](C(=O)Cn4ncc5ncccc54)CC[C@@H]32)C1` [SB-48]: the activity at 10 µM in assay [1] is greater than 500%.
As to `Cc1ccc2nnn(CC(=O)[C@H]3CC[C@H]4[C@@H]5CC[C@@H]6C[C@](C)(O)CC[C@@H]6[C@H]5CC[C@]34C)c2c1` [SA-42], the activity at 10 µM in assay [1] fell in the range of 100 to 500%.
`C[C@]12CC[C@H]3[C@@H](CC[C@@H]4C[C@@](O)(C(F)F)CC[C@@H]43)[C@@H]1CC[C@@H]2C(=O)Cn1nc2ccncc2n1` [SA-97]: the activity at 10 µM in assay [1] was greater than 500%.
